Test results published in US12522590B2, “Brefeldin a derivatives, preparation method and use thereof” (OCEAN UNIVERSITY OF CHINA, priority 2019, dated 2026).
≈ marks a conversion by molar mass, not a printed value. Read-outs that look alike come from different tables or passages of the source.

Columns and labels:
[1] = test system: Human cervical cancer cells Hela; assay: Cell proliferation assay (CCK-8); type: cell-based; settings: Homo sapiens, 72 h
From the text: (§1) CCK-8 method: The CCK-8 method is a highly sensitive, non-radioactive colorimetric assay for the determination of the number of viable cells in cell proliferation or cytotoxicity assays. The orange formazan dye produced by the bioreduction of CCK-8 by intracellular dehydrogenase is soluble in the cell culture medium, and the amount of formazan dye produced is proportional to the number of living cells. The kit used in this method is the tetrazolium salt-WST-8 (2-(2-methoxy-4-nitrophenyl)-3-(4-nitrophenyl)-5-(2,4-disulfophenyl)-2H-tetrazolium monosodium salt) developed by Dojindo Chemical Research Institute (Dojindo), which is capable of being reduced to a water-soluble formazan dye in the presence of the electronic carrier 1-Methoxy PMS.
(§2) Human cervical cancer cells Hela, pancreatic cancer cells PANC-1, esophageal cancer cells Eca-109, human leukemia cells K562, human lung cancer cells A549, human liver cancer cells HepG2, human gastric cancer cells MKN-45, human breast cancer cells MCF7 were cultured in DMEM medium containing 10% FBS (fetal bovine serum), 100 U/mL penicillin and 100 μg/ml streptomycin. Hepatocellular carcinoma cells Bel-7402 were cultured in RPMI-1640 medium containing 10% FBS (fetal bovine serum), 100 U/ml penicillin and 100 μg/ml streptomycin. All cells were placed in a cell culture incubator at 37° C. with 5% CO2. Cells fluid was changed every 3-5 days, and after 80% cell fusion, trypsin digestion and passaging were performed to keep the cells in good logarithmic growth phase.
(§3) All the samples to be tested were dissolved in DMSO.
(§4) Cells in logarithmic growth phase were inoculated in 96-well plates with 5000 cells/well respectively, and after 24 h of incubation, samples were added (final concentrations as shown in the table), and biplicate wells were set up for each sample. The amount of solvent of DMSO was not higher than 2‰. After 72 h, 10 μL of CCK-8 solution was added to each well and incubated for 1.5˜3 h at 37° C. The OD value at 450 nm was measured on an plate reader. Inhibition rate (%)=(1−[(OD450 dosed well−OD450 blank well)/(OD450 control well−OD450 blank well)])×100%
(§5) The fitted IC50 values were calculated using the log (inhibitor) vs. response—Variable slop analysis method in GraphPad Prism software.

[2] = test system: human gastric cancer cells MKN-45; assay: Cell proliferation assay (CCK-8); type: cell-based; settings: Homo sapiens, MKN-45, 72 h
From the text: as §1, §2, §3, §4, §5

[3] = test system: human leukemia cells K562; assay: Cell proliferation assay (CCK-8); type: cell-based; settings: Homo sapiens, K562, 72 h
From the text: as §1, §2, §3, §4, §5

[4] = test system: human lung cancer cells A549; assay: Cell proliferation assay (CCK-8); type: cell-based; settings: Homo sapiens, A549, 72 h
From the text: as §1, §2, §3, §4, §5

[5] = test system: human breast cancer cells MCF7; assay: Cell proliferation assay (CCK-8); type: cell-based; settings: Homo sapiens, MCF7, 72 h
From the text: as §1, §2, §3, §4, §5

[6] = test system: human liver cancer cells HepG2; assay: Cell proliferation assay (CCK-8); type: cell-based; settings: Homo sapiens, HepG2, 72 h
From the text: as §1, §2, §3, §4, §5

[7] = test system: esophageal cancer cells Eca-109; assay: Cell proliferation assay (CCK-8); type: cell-based, human; settings: Homo sapiens, Eca-109, 72 h
From the text: as §1, §2, §3, §4, §5

[8] = test system: pancreatic cancer cells PANC-1; assay: Cell proliferation assay (CCK-8); type: cell-based, human; settings: Homo sapiens, PANC-1, 72 h
From the text: as §1, §2, §3, §4, §5

[9] = Solubility test (shake 37° C., 24 h, HPLC); type: physicochemical; settings: thermodynamic from solid, x ± s
Description: The term “solubility” refers to the mass of solute dissolved when a solid substance reaches saturation state in 100 g solvent at a certain temperature. Solubility test refer to the following references: ZHU Shang-bin, et al. Preparation, characterization, and physicochemical properties of arbutin phospholipid complex[J]. Chinese Traditional and Herbal Drugs. 2020, 1-10.
Methods: Excess BFA and the compounds disclosed herein were added to 10 mL of three solvents, methanol, acetone and 5% DMSO+95% H2O, respectively, and shaken on a shaker at 37° C. at 100 r/min for 24 h. After 24 h, the samples were centrifuged at 15 000 r/min for 15 min to remove the undissolved compounds. The supernatant was filtered using a 0.45 μm membrane filter. The supernatant was appropriately diluted with methanol and contents of the compounds were determined by HPLC method to calculate the solubility.

[10] = aqueous with cosolvent or surfactant or cyclodextrin, 5% DMSO + 95% H2O, n = 3, read-out: Solubility, 5% DMSO + 95% H2O
[11] = organic solvent or mixture, acetone, n = 3, read-out: Solubility, Acetone
[12] = organic solvent or mixture, methanol, n = 3, read-out: Solubility, Methanol

| Compound | IC50 [1] | IC50 [2] | IC50 [3] | IC50 [4] | IC50 [5] | IC50 [6] | IC50 [7] | IC50 [8] | solubility at 24 h [9, 10] | solubility at 24 h [9, 11] | solubility at 24 h [9, 12] |
| --- | --- | --- | --- | --- | --- | --- | --- | --- | --- | --- | --- |
| C[C@H]1CCC/C=C/[C@@H]2C[C@H](OC(=O)OCc3ccc(N)nc3)C[C@H]2[C@H](O)/C=C/C(=O)O1 [Compound 5] | 100 to 1000 nM | < 100 nM | 100 to 1000 nM | 100 to 1000 nM | 100 to 1000 nM | 100 to 1000 nM | < 100 nM | 100 to 1000 nM | – | – | – |
| C[C@H]1CCC/C=C/[C@@H]2C[C@H](OC(=O)OCc3ccncc3)C[C@H]2[C@H](O)/C=C/C(=O)O1 [Compound 3, BFA-7-(pyridine-4-ylmethyl)carbonate] | 100 to 1000 nM | < 100 nM | 100 to 1000 nM | 100 to 1000 nM | < 100 nM | 100 to 1000 nM | 100 to 1000 nM | 100 to 1000 nM | 2650 ± 1600 µg/mL | 69600 ± 1740 µg/mL (≈ 168 mM) | 70300 ± 4350 µg/mL (≈ 169 mM) |
| Cc1ccc(COC(=O)O[C@@H]2C[C@H]3[C@H](O)/C=C/C(=O)O[C@@H](C)CCC/C=C/[C@@H]3C2)cn1 [Compound 7] | 100 to 1000 nM | 100 to 1000 nM | 100 to 1000 nM | 100 to 1000 nM | 100 to 1000 nM | 100 to 1000 nM | 100 to 1000 nM | 100 to 1000 nM | – | – | – |
| C[C@H]1CCC/C=C/[C@@H]2C[C@H](OC(=O)OCc3cncc4ccccc34)C[C@H]2[C@H](O)/C=C/C(=O)O1 [Compound 12] | 100 to 1000 nM | 100 to 1000 nM | 100 to 1000 nM | 100 to 1000 nM | 100 to 1000 nM | < 100 nM | 100 to 1000 nM | 100 to 1000 nM | – | – | – |
| C[C@H]1CCC/C=C/[C@@H]2C[C@H](OC(=O)OCc3cccc(F)c3)C[C@H]2[C@H](O)/C=C/C(=O)O1 [Compound B, reference compound] | 1000 to 10000 nM | 1000 to 10000 nM | 1000 to 10000 nM | 1000 to 10000 nM | 100 to 1000 nM | 100 to 1000 nM | 100 to 1000 nM | 100 to 1000 nM | 260 ± 160 µg/mL | 9550 ± 1230 µg/mL (≈ 22.1 mM) | 9760 ± 1210 µg/mL (≈ 22.6 mM) |
| C[C@H]1CCC/C=C/[C@@H]2C[C@H](OC(=O)OCc3ccc(N4CCCCC4)nc3)C[C@H]2[C@H](O)/C=C/C(=O)O1 [Compound 8] | 1000 to 10000 nM | 1000 to 10000 nM | 100 to 1000 nM | 100 to 1000 nM | 100 to 1000 nM | 100 to 1000 nM | 100 to 1000 nM | 100 to 1000 nM | – | – | – |
| C[C@H]1CCC/C=C/[C@@H]2C[C@H](OC(=O)OCCc3ccccc3)C[C@H]2[C@H](O)/C=C/C(=O)O1 [Compound A, reference compound] | 1000 to 10000 nM | 1000 to 10000 nM | 100 to 1000 nM | 100 to 1000 nM | 1000 to 10000 nM | 100 to 1000 nM | 100 to 1000 nM | 1000 to 10000 nM | 250 ± 130 µg/mL | 9360 ± 1260 µg/mL (≈ 21.8 mM) | 9930 ± 1210 µg/mL (≈ 23.2 mM) |
| C[C@H]1CCC/C=C/[C@@H]2C[C@H](OC(=O)OCCCc3cccnc3)C[C@H]2[C@H](O)/C=C/C(=O)O1 [Compound 10] | 100 to 1000 nM | 100 to 1000 nM | 100 to 1000 nM | 100 to 1000 nM | 100 to 1000 nM | 100 to 1000 nM | < 100 nM | 100 to 1000 nM | – | – | – |
| COC(=O)O[C@@H]1C[C@H]2[C@H](O)/C=C/C(=O)O[C@@H](C)CCC/C=C/[C@@H]2C1 [Compound C, reference compound] | 1000 to 10000 nM | 1000 to 10000 nM | 100 to 1000 nM | 100 to 1000 nM | 100 to 1000 nM | 100 to 1000 nM | 1000 to 10000 nM | 100 to 1000 nM | 250 ± 230 µg/mL | 9260 ± 1130 µg/mL (≈ 27.4 mM) | 9440 ± 1510 µg/mL (≈ 27.9 mM) |
| C[C@H]1CCC/C=C/[C@@H]2C[C@H](OC(=O)OCc3ccccn3)C[C@H]2[C@H](O)/C=C/C(=O)O1 [Compound 2, BFA-7-(pyridine-2-ylmethyl)carbonate] | < 100 nM | 100 to 1000 nM | 100 to 1000 nM | 100 to 1000 nM | 100 to 1000 nM | 100 to 1000 nM | 100 to 1000 nM | 100 to 1000 nM | 2480 ± 1550 µg/mL | 69400 ± 2230 µg/mL (≈ 167 mM) | 73300 ± 3520 µg/mL (≈ 176 mM) |
| C[C@H]1CCC/C=C/[C@@H]2C[C@H](OC(=O)OCCc3cccnc3)C[C@H]2[C@H](O)/C=C/C(=O)O1 [Compound 9, BFA-7-(pyridine-3-ylethyl)carbonate] | < 100 nM | 100 to 1000 nM | 100 to 1000 nM | < 100 nM | 100 to 1000 nM | 100 to 1000 nM | 100 to 1000 nM | 100 to 1000 nM | 2700 ± 770 µg/mL | 68800 ± 2530 µg/mL (≈ 160 mM) | 69000 ± 1810 µg/mL (≈ 161 mM) |
| COc1cccc2c1C(=O)c1c(O)c3c(c(O)c1C2=O)C[C@@](O)(C(=O)CO)C[C@@H]3O[C@H]1C[C@H](N)[C@H](O)[C@H](C)O1 [Adriamycin, reference compound] | 100 to 1000 nM | 100 to 1000 nM | 1000 to 10000 nM | 100 to 1000 nM | 1000 to 10000 nM | > 10000 nM | 100 to 1000 nM | < 100 nM | – | – | – |
| C[C@H]1CCC/C=C/[C@@H]2C[C@H](OC(=O)OCc3cncc(F)c3)C[C@H]2[C@H](O)/C=C/C(=O)O1 [Compound 4, BFA-7-(5-fluoro-pyridine-3-ylmethyl)carbonate] | < 100 nM | 100 to 1000 nM | 100 to 1000 nM | 100 to 1000 nM | 100 to 1000 nM | 100 to 1000 nM | 100 to 1000 nM | < 100 nM | 2720 ± 330 µg/mL | 63800 ± 3530 µg/mL (≈ 147 mM) | 69400 ± 3510 µg/mL (≈ 160 mM) |
